The text below walks through data of patent US20240391978A1, “APOLIPOPROTEIN FUSION PROTEINS FOR CELL-SPECIFIC IMMUNE REGULATION” (BIO-TRIP B.V., priority 2021, published 2024).

Common to all, as to format: cell-based, human
Assay [1] has as its system Macrophages. In words: Seahorse metabolic analyses of IL4-trained cells. The conditions noted are these: IL4 training on day 0, measured on day 6. As to the method:
Seahorse metabolic analyses: Macrophages were harvested as described above. The cells were resuspended in RPMI+++ and seeded into overnight-calibrated cartridges at 10^5 cells per well. After adhering for 1 hour, the medium was changed to assay medium (Agilent; see below) and the cells were incubated for 1 hour at 37° C. in ambient C02 levels. Oxygen consumption rates (OCR) and extracellular acidification rates (ECAR) were measured as proxies for glycolytic and […] metabolism, using a Seahorse XF Glycolysis Stress Test kit or a Seahorse XF Cell Mito Stress Test kit (both Agilent; measurements performed according to manufacturer's instructions).

Assay [2] concerns Macrophages. In words: Macrophage surface marker flow cytometry. The settings on record: data not shown. From the text: Primary monocyte-derived dendritic cell (moDC) generation: For experiments were moDCs were compared to macrophages (untrained control or IL4-trained), moDCs were differentiated as follows. First, negatively selected monocytes were obtained as described above. […] The cells were differentiated until day 6, with one medium refresh on day 3. On day 6, the non-adherent cells were harvested in addition to the adherent cells (as described above). The moDCs and macrophages were then subjected to analysis by flow cytometry as described below.
Macrophage surface marker flow cytometry: Macrophages were harvested as described above and transferred to a v-bottom 96 well plate for staining. The cells were centrifuged at 1500 rpm, 5 minutes, 4° C. The supernatant was removed, and the cells were washed once with 200 μl PBA (PBS pH 7.4, 1% w/v BSA (Sigma)).
Fc-receptors were blocked by incubation in PBS supplemented with 10% human pooled serum for 15 minutes at 4° C. After washing once more, surface markers and viability were stained for in a volume of 50 μl for 30 minutes at 4° C., using the antibodies and viability dye described in table 3.
Following two washes, the cells were resuspended in 150 μl PEA and measured on a Cytoflex flow cytometer (Eeckman Coulter) or ED FACSVerse system (ED Eiosciences). Compensation was performed using VersaComp compensation beads (Eeckman Coulter) for single antibody stains; a mixture of live and heat-killed cells was used for single stains of the viability dye (as per the manufacturer's recommendations). Data analysis was performed in Flowjo (v10.7.1, ED Eiosciences) Our gating strategy was as follows: first, a time gate was used if necessary. Then, single cell events were selected using subsequent FSC-A/SSC-A and FSC-A/FSC-H gates. Dead cells were removed from the analysis by selecting the viability dye-negative population. Geometric mean fluorescence intensities were calculated as a measure of surface marker expression.
A general note: In flow cytometry, cells or beads pass a laser one at a time.

The test system of assay [3] is Macrophages. In words: Phagocytosis assay. The settings on record: IL4-trained cells vs untrained controls; data not shown. The procedure:
Phagocytosis assay: Macrophages were harvested as described above and incubated at 37° C. for 1 hour with FITC-labeled Candida albicans (kindly provided by Dr. Martin Jaeger, Radboudumc) at an MOI of 1:5. The cells were washed 2 times with ice-cold PBA and kept on ice to halt the phagocytosis. The cells were stained for CD45 (table 3) during 30 minutes in the dark at 4° C. Following two washes, trypan blue was added to a final concentration of 0.01% to quench extracellular FITC-Candida. The cells were then acquired on a Cytoflex flow cytometer.
During data analysis, CD45+ events were first selected to remove Candida-only events. Single cells were then gated on as described above and the percentage of Candida-FITC positive macrophages in each sample was calculated.

Assay [4] relates to TNF. In words: ChIP-qPCR of H3K9me3 at TNF. The settings on record: IL4-induced trained immunity. The procedure: Chromatin immunoprecipitation: Macrophages were harvested as described above and resuspended in RPMI+++. The cells were fixed for 10 minutes in 1% methanol-free formaldehyde. The reaction was then quenched for 3 minutes by adding 125 mM glycine. The fixed cells were washed three times with ice-cold PBS and lysed at approximately 15*10^6 cells/ml in lysis buffer (20 mM HEPES pH 7.6, 1% SDS, 1× protease inhibitor cocktail (PIC; Roche)), sonicated (Bioruptor Pico, Diagenode), and centrifuged (10 minutes, 13000 rpm, RT).
Aliquots of chromatin were de-crosslinked in 0.5×TBE buffer (supplemented with 0.5 mg/ml proteinase K (Qiagen)) for 1 hour at 65° C. and run on a 1% agarose gel to confirm target fragment size of 200-800 bp.
The remaining chromatin was divided into ChIP and input samples. ChIP samples were diluted 10× in dilution buffer (16.7 mM Tris pH 8.0, 1.0% Triton, 1.2 mM EDTA, 167 mM NaCl, 1×PIC in MilliQ) and 1 μg of ChIP-grade antibody (Diagenode) was added. The samples were rotated overnight at 4° C.
Magnetic protein A/G beads (Dynabeads) were washed 2 times in dilution buffer supplemented with 0.15% SDS and 0.1% BSA. The washed beads were added to the ChIP samples and rotated at 4° C. for 1 hour. […]
For orientation: In qPCR the cycle at which signal appears reflects the starting amount.

Turning to IL4: recombinant human interleukin 4, in assay [1], the “FCCP-triggered maximum respiration rate” value is “significantly augmented”, the basal glycolysis entry is recorded as “trend towards higher basal glycolysis”, the baseline respiration rate result is recorded as “significantly augmented” and the “oligomycin-triggered maximum glycolytic capacity” value is “significant increase”. In addition, the CD1c expression entry in assay [2] (IL4-trained cells vs untrained cells and moDCs) is given as “slightly more CD1c than untrained cells, but far less than moDCs”. In assay [2] (IL4 training, day 6), the CD14 expression entry is “strong downregulation”, the CD80 expression entry is given as “marginally increased”, the CD200R expression result is recorded as “significantly enhanced” and the CD206 expression entry was “significantly enhanced”. Further, the “phagocytosis of heat-killed Candida albicans” value in assay [3] is given as “slightly less effective at phagocytosing heat-killed Candida albicans than untrained controls”. Also, the “H3K9me3 at TNF (AUC analysis of primer pairs)” value in assay [4] was “a decrease of H3K9me3”.
